The test system of this assay is methylphenidate. The assay can be described thus: Methylphenidate antagonism in mice (rapid screening test for neuroleptic drugs). In kind it is in vivo, NMRI male mice. To be noted: Mus musculus, ip. Here is the method:
40 grams of 4-(2-hydroxyethyl)piperidine were then added, and the mixture heated for 17 hours at 90° Centigrade. The mixture was cooled, poured into water, extracted with 500 milliliters of ether, the ether extract washed five times with water and dried over anhydrous magnesium sulphate. The oxalate of 2-trifluoromethyl-7-fluoro-10-(3'-(4-(2-hydroxyethyl)piperidin-1-yl)propyl)phenothiazine was precipitated from acetone-/ether (1:1) and melts at 76°-80° Centigrade. The pharmacological testing of the compounds of the present invention consisted of a standard and reliable, published test showing the neuroleptic activity of the compounds in that they antagonize central nervous stimulating compounds such as amphetamine and methylphenidate. […] 1971, 29, suppl. 4, 44.
The test may briefly be described as follows:
As animals were used NMRI male mice weighing 18-25 grams. 3 × 2 mice are used for each dose level.
2, 6 or 24 hours after i.p.injection of test substance, methylphenidate, 60 mg/kg, is injected s.c. After administration of methylphenidate the mice are placed in the observation cages, 2 in each cage, where they remain for 2, 6 or 24 hours. The cages are placed on corrugated paper, the corrugations facing upwards. It is examined whether or not the mice have been biting the corrugated paper. […] If one or more of the control pairs have also not been biting the corrugated paper, the test has to be repeated on a new set of mice. The following novel substances of Formula I were tested: […]
As reference substances were used the corresponding known phenothiazines having no fluorine substitution at position 7, namely fluphenazine, perphenazine, thioproperazine, acetophenazine and chlorpromazine respectively.

The mark [1] stands for this setting: 2 h after i.p. injection of test substance, methylphenidate 60 mg/kg s.c., mice, read-out: Methylphenidate Antagonism ED50, 2h.
Setting [2] is: 6 h after i.p. injection of test substance, methylphenidate 60 mg/kg s.c., mice, read-out: Methylphenidate Antagonism ED50, 6h.
The mark [3] stands for this setting: 24 h after i.p. injection of test substance, methylphenidate 60 mg/kg s.c., mice, read-out: Methylphenidate Antagonism ED50, 24h.
The mark [4] stands for this setting: 2 h, read-out: Methylphenidate Antagonism ED50, 2h.
The mark [5] stands for this setting: 6 h, read-out: Methylphenidate Antagonism ED50, 6h.
Where [6] appears, read: 24 h, read-out: Methylphenidate Antagonism ED50, 24h.

Structures are written as SMILES. Like-named read-outs stand apart in the source and are kept apart here.

As a reminder, the ED50 is the dose at which the effect has come halfway, by size or by number of responders. Consider `CC(=O)c1ccc2c(c1)N(CCCN1CCN(CCO)CC1)c1ccccc1S2` [Acetophenazine], for which the ED50 reads like this: under setting [1], 0.2 mg/kg; under setting [2], 4.4 mg/kg; under setting [3], greater than 10 mg/kg.
For the compound `CN(C)CCCN1c2ccccc2Sc2ccc(Cl)cc21` [Chlorpromazine], the ED50 under setting [4] was determined as 3.3 mg/kg, the ED50 under setting [5] was greater than 20 mg/kg and the ED50 under setting [6] was greater than 20 mg/kg.
`OCCN1CCN(CCCN2c3ccccc3Sc3ccc(C(F)(F)F)cc32)CC1` [Fluphenazine]: the ED50 reads like this: under setting [1], 0.08 mg/kg; under setting [2], 0.03 mg/kg; under setting [3], greater than 2.5 mg/kg.
For the compound `OCCN1CCN(CCCN2c3ccc(F)cc3Sc3ccc(C(F)(F)F)cc32)CC1` [Lu 10-116, 2-trifluoromethyl-7-fluoro-10-(3'-(4-(2-hydroxyethyl)-piperazine-1-yl)propyl)phenothiazine], the 50% effective dose (ED50) under setting [1] was found to be 0.11 mg/kg, the ED50 under setting [2] is 0.01 mg/kg and the ED50 under setting [3] was found to be 0.08 mg/kg.
In the case of `OCCN1CCN(CCCN2c3ccc(F)cc3Sc3ccc(Cl)cc32)CC1` [Lu 10-125, 2-chloro-7-fluoro-10-(3'-(4-(2-hydroxyethyl)-1-piperazinyl)propyl)-phenothiazine], the ED50 is 0.06 mg/kg under setting [1], 0.05 mg/kg under setting [2] and greater than 5 mg/kg under setting [3].
For `CN(C)CCCN1c2ccc(F)cc2Sc2ccc(Cl)cc21` [Lu 10-152, 2-chloro-7-fluoro-10-(3'-dimethylaminopropyl)-phenothiazine] the same measures were 2 mg/kg, 2.1 mg/kg and greater than 20 mg/kg.
For `CN1CCN(CCCN2c3ccc(F)cc3Sc3ccc(S(=O)(=O)N(C)C)cc32)CC1` [Lu 11-075, 2-dimethylsulfamoyl-7-fluoro-10-(3'-(4-methyl-piperazin-1-yl)-propyl)phenothiazine] the same measures were 0.7 mg/kg, 0.44 mg/kg and greater than 5 mg/kg.
Regarding `CC(=O)c1ccc2c(c1)N(CCCN1CCN(CCO)CC1)c1ccc(F)cc1S2` [Lu 11-087, 2-acetyl-7-fluoro-10-(3'-(4-(2-hydroxyethyl)-1-piperazinyl)-propyl)phenothiazine], the ED50 was 0.06 mg/kg under setting [1], 0.07 mg/kg under setting [2] and greater than 1.25 mg/kg under setting [3].
On to `OCCN1CCN(CCCN2c3ccccc3Sc3ccc(Cl)cc32)CC1` [Perphenazine], for which the ED50 is, setting by setting: under setting [4], 0.08 mg/kg; under setting [5], 0.55 mg/kg; under setting [6], greater than 5 mg/kg.
Regarding `CN1CCN(CCCN2c3ccccc3Sc3ccc(S(=O)(=O)N(C)C)cc32)CC1` [Thioproperazine], the ED50 under setting [1] was 0.28 mg/kg, the ED50 under setting [2] stood at 1.2 mg/kg and the ED50 under setting [3] was greater than 5 mg/kg.

For the origin of these results see patent US3966930A, “Phenothiazine derivatives, compositions thereof and methods of preparation thereof” (Kefalas A/S, priority 1973, dated 1976).
